Reference: patent US20130045204A1, “FLUORINATED BISPHENOL ETHER COMPOUNDS AND METHODS FOR THEIR USE” (The University of British Columbia, priority 2011, published 2013)
Entries after “also recorded” stand apart in the source; their conditions may differ.

Columns and labels:
[1] = target: T1, AR (Homo sapiens, UniProt P10275); experiment: ARR3-luciferase reporter assay of AR transcriptional activity; assay type: cell-based
T1 sequence (P10275 1-920 T878A): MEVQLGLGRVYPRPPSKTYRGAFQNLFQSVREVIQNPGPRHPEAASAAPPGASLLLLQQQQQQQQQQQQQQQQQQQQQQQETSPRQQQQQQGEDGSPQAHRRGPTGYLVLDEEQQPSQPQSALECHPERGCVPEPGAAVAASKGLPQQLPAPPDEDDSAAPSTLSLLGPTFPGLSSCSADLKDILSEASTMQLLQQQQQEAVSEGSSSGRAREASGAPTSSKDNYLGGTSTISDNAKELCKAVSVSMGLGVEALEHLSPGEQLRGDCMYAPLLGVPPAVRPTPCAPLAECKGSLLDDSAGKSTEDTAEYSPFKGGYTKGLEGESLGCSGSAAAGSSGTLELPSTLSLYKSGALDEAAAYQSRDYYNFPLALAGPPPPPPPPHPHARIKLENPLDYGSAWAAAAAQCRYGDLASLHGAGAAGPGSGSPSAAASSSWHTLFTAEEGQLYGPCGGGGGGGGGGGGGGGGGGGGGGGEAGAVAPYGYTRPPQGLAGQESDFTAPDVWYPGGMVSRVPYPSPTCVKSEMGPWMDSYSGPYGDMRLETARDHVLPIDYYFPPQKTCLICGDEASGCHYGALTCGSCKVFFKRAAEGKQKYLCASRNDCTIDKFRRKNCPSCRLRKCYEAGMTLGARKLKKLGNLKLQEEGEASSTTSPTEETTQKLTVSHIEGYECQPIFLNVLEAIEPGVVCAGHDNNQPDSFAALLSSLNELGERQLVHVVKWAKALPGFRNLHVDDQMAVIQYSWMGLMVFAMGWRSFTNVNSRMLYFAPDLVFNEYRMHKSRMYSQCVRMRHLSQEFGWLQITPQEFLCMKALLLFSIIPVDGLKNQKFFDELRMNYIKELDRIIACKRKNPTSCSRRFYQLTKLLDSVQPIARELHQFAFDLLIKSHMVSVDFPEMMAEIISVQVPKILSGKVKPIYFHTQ

[2] = target: T1, AR; experiment: probasin (PB)-luciferase reporter assay of AR transcriptional activity; assay type: cell-based
[3] = target: T1, AR; experiment: PSA-luciferase reporter assay of AR transcriptional activity; assay type: cell-based; details: for PSA-Luc activity (%) mean ± SD: PSA-luciferase reporter
[4] = tested on: LNCaP CRPC xenograft; experiment: LNCaP CRPC xenograft model, antitumor activity; assay type: in vivo, mice; details: for CRPC tumor growth / antitumor activity (in words): compared to DMSO control or to other comparative compounds, FIGS. 6, 7
[5] = Body weight of animals in LNCaP CRPC xenograft model; assay type: in vivo, mice; details: treated animals; FIG. 9
[6] = tested on: VCaP xenografts; experiment: Growth inhibition of VCaP xenografts in castrated mice; assay type: in vivo; details: castrated NOD-SCID mice, 50 mg/kg i.v. every other day, seven doses; compared to (Ac); FIGS. 3, 4
Description: Growth inhibition of VCaP xenografts in castrated mice was determined as follow. Male NOD-SCID mice bearing subcutaneous VCaP tumors were castrated when tumor volume was ˜100 mm^3. […] The experiment ended two days after the last dose. Change in tumor volume was determined as the change at day 14 compared to the day of 1st injection. DMSO was used as the vehicle control.

[7] = target: T2, androgen receptor N-terminal domain (Homo sapiens, UniProt P10275); experiment: Inhibition of androgen receptor N-terminal domain transactivation (AR (1-558)-Gal4 DBD, luciferase); assay type: cell-based; details: LNCaP cells, compound 1 20 μm vs (Ac) 25 μm, 50 ng/ml IL-6; FIG. 2
T2 construct: AR (1-558)-Gal4 DBD; expressed in transfected cells; host or cells: LNCaP
T2 sequence (P10275 1-558): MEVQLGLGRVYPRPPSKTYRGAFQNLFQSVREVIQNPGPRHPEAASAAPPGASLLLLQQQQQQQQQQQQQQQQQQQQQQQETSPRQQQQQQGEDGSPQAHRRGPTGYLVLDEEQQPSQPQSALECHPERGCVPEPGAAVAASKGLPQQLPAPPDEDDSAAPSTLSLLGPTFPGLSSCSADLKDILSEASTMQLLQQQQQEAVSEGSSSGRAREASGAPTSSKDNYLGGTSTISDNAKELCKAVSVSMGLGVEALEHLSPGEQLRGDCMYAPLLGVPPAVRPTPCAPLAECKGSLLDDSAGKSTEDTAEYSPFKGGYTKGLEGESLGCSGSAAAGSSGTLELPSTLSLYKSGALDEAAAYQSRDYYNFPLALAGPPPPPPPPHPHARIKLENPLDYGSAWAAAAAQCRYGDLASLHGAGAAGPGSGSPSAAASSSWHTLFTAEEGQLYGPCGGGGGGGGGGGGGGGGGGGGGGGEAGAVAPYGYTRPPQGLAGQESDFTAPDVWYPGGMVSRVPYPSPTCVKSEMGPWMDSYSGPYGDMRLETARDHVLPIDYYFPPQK
Description: Inhibition of androgen receptor N-terminal domain transactivation was determined as follows.

[8] = tested on: LNCaP cells; experiment: Inhibition of androgen-dependent proliferation, AlamarBlue Proliferation Assay; assay type: cell-based, human; details: 0.1 nM R1881, 3 days; compared to comparative compound (Ac); FIGS. 1A and 1B
Description: LNCaP human prostate cancer cells were maintained in phenol red-free RPMI 1640 medium with 0.5% (v/v) fetal bovine serum, while PC3 human prostate cancer cells were cultured in phenol red DMEM medium with 0.5% (v/v) fetal bovine serum at 37° C. […] LNCaP cells were incubated for 72 hours with R1881, while the duration of the experiment was 48 hours for PC3 cells. AlamarBlue reagent was added to the cells prior to incubation and measuring fluorescence at 570 nm.

Row | Compound | ARR3-Luc activity (%) mean ± SD [1] [%] | PB-Luc activity (%) mean ± SD [2] [%] | PSA-Luc activity (%) mean ± SD [3] [%] | change in tumor volume at day 14 (in words) [6] | other results
1 | CC(C)(c1ccc(OCC(O)CO)cc1)c1ccc(OCC(O)CCl)cc1 (stereo not shown) [(A)] | 63.96 ± 14.57 | 63.96 ± 13.70 | 36.91 ± 16.46 | – | –
2 | CC(C)(c1ccc(OC[C@H](O)CO)cc1)c1ccc(OC[C@@H](O)CCl)cc1 [(Aa)] | 66.44 ± 31.59 | 66.44 ± 12.47 | 45.16 ± 29.13 | – | –
3 | CC(C)(c1ccc(OC[C@H](O)CCl)cc1)c1ccc(OC[C@@H](O)CO)cc1 [(Ab)] | 43.68 ± 15.16 | 43.70 ± 9.98 | 24.49 ± 13.20 | – | animals in which tumor regression was attained ([4]; FIG. 8): 60%; CRPC tumor growth / antitumor activity (in words) [4]: better antitumor activity; loss of body weight (in words) [5]: some losses
4 | CC(C)(c1ccc(OC[C@H](O)CO)cc1)c1ccc(OC[C@H](O)CCl)cc1 [(Ac)] | 41.58 ± 14.82 | 41.58 ± 6.63 | 24.33 ± 13.63 | – | inhibition of transcriptional activity of AR (in words) ([3]; PSA-, probasin (PB)- and ARR3-luciferase reporters, Table 3): best activity of all the comparative compounds; extent of tumor regression (in words) ([4]; (Ac) versus (Ab), FIG. 8): greater regression; animals in which tumor regression was attained ([4]; FIG. 8): 60%; CRPC tumor growth / antitumor activity (in words) [4]: better antitumor activity; also recorded: most potent and least toxic of the comparative compounds; loss of body weight (in words) [5]: No loss of body weight
5 | CC(C)(c1ccc(OC[C@@H](O)CO)cc1)c1ccc(OC[C@@H](O)CCl)cc1 [(Ad)] | 54.73 ± 12.99 | 54.72 ± 7.83 | 33.55 ± 11.31 | – | –
6 | CC(C)(c1ccc(OCC(O)CF)cc1)c1ccc(OCC(O)CCl)cc1 (stereo not shown) [Compound 1, 1-chloro-3-(4-(2-(4-(3-fluoro-2-hydroxypropoxy)phenyl)propan-2-yl)phenoxy)propan-2-ol] | – | – | – | increased loss in tumor volume | inhibition of androgen receptor N-terminal domain transactivation (in words) [7]: more potent inhibition activity; inhibition of androgen-dependent proliferation of LNCaP cells (in words) [8]: inhibits androgen-dependent proliferation of LNCaP cells at lower concentrations
7 | CC(C)(c1ccc(OC[C@H](O)CF)cc1)c1ccc(OC[C@H](O)CCl)cc1 [Compound 1c, (S)-1-chloro-3-(4-(2-(4-((S)-3-fluoro-2-hydroxypropoxy)phenyl)propan-2-yl)phenoxy)propan-2-ol] | – | – | – | increased loss in tumor volume | –
8 | CC(C)(c1ccc(OC[C@@H](O)CF)cc1)c1ccc(OC[C@@H](O)CCl)cc1 [Compound 1d, (R)-1-chloro-3-(4-(2-(4-((R)-3-fluoro-2-hydroxypropoxy)phenyl)propan-2-yl)phenoxy)propan-2-ol] | – | – | – | increased loss in tumor volume | –
